Tested on: immobilized GST-tagged bait protein domains
Assay: ProP-PD phage selections (HD2 P8, sublibraries, HD2 P3, HD1 P8) with NGS and confidence level
Format: binding, human
[1] = library HD2, bait EPS15_EH__P42566_121_215, best matching peptide
[2] = library HD2, bait EPS15_EH__P42566_121_215, confidence level of best matching peptide (4 High, 2-3 Medium, 1 Low)
[3] = library HD2, bait EPS15_EH__P42566_121_215, whether the validated benchmark motif instance was recovered in the ProP-PD selection (TRUE/FALSE)
[4] = bait OXSR1___O95747_434_527, HD2 P8 cytoplasm sublibrary, confidence level (4 = High, 2-3 = Medium, 1 = Low)
[5] = bait NEDD4_WW_4_P46934_890_928, HD2 library, whether the validated benchmark motif instance was recovered in the ProP-PD selection (TRUE/FALSE)
[6] = library HD2, bait YAP1_WW_1_P46937_169_207, validated benchmark motif instance, in_library_check TRUE, TRUE/FALSE = instance recovered in ProP-PD selection
[7] = bait CALM1_EF-hand__P0DP23_2_149, library HD2, benchmarking set of validated motif instances, TRUE = motif instance recovered in the ProP-PD selection
[8] = bait ANKRA2_Ank__Q9H9E1_142_313, HD2 P8 selection, confidence level -4 to 4: 4 = High, 3 or 2 = Medium, 1 = Low, 0 = Filtered/Noise
[9] = HD2 library, bait SUMO1_SUMO__P63165_1_101, known motif instance of the benchmarking set found (TRUE) or not found (FALSE) among selected peptides
[10] = bait MAP1LC3A_ATG8 (Q9H492 2-121), HD2 library, benchmark motif instance recovered in the ProP-PD selection (TRUE/FALSE)
[11] = bait MAP1LC3B_ATG8 (Q9GZQ8 2-119), HD2 library, benchmark motif instance recovered in the ProP-PD selection (TRUE/FALSE)
[12] = bait KPNA4_Arm (O00629 68-487), HD2 library, benchmark motif instance recovered in the ProP-PD selection (TRUE/FALSE)
[13] = library HD2, bait Keap1_KELCH__Q14145_321_609, whether the validated benchmark motif instance was recovered in the ProP-PD selection (TRUE/FALSE)
[14] = bait CRK_SH3_1_P46108_124_198, library HD2, benchmarking set of validated motif instances, TRUE = motif instance recovered in the ProP-PD selection
[15] = HD2 library, bait TNKS_TANK-peptide-bind__O95271_174_649, known motif instance of the benchmarking set found (TRUE) or not found (FALSE) among selected peptides
[16] = bait OXSR1___O95747_434_527, HD2 library, confidence level (1-4) of best matching selected peptide
[17] = bait OXSR1___O95747_434_527, HD2 library, specificity score of best matching selected peptide
[18] = bait OXSR1___O95747_434_527, HD2 library, whether the validated benchmark motif instance was recovered in the ProP-PD selection (TRUE/FALSE)

## SNPFMTGAPTGQFPTG
[1]
  best_specificity: 1
[2]
  best_confidence: 3
[3]
  motif_found: TRUE

## SNTNRFQVSVINENHE
[4]
  HD2_cytoplasm confidence: 4

## SPALTAPPPAYATLGPRP
[5]
  motif_found: FALSE
[6]
  motif_found: FALSE

## SPANSFHFKEAWKHAIQKAKHMPDPWA [EEF2K]
[7]
  motif_found: FALSE

## SPFLPDLNFFAADSCL
[8]
  HD2 confidence: 2

## SPSLPNITLGLPATGP
Bait ANKRA2_Ank__Q9H9E1_142_313, HD1 P8 library, confidence level (4 = High, 2-3 = Medium, 1 = Low)
  HD confidence: 4
Bait ANKRA2_Ank__Q9H9E1_142_313, HD1 P8 library, mean NGS counts over replicate selections
  HD mean counts: 701.75
Bait ANKRA2_Ank__Q9H9E1_142_313, HD1 P8 library, mean proportion of NGS counts
  HD count proportions: 0.06192

## SQKGNISETIVIDDEEDIETNGGA
[9]
  motif_found: FALSE

## SQPAGISTNPFMTGPSSSP
[3]
  motif_found: FALSE

## SQPVMRPPNPFGPVSGAQI
[3]
  motif_found: FALSE

## SQRIQTNNNPFQVPIEEQR [RELA 138-142]
HD2 library, bait EPS15_EH__P42566_121_215, benchmark motif instance, in_library_check FALSE, in_library_coverage 0
  motif_found: FALSE

## SQSSASSEDYIIILPECFDT
[10]
  motif_found: FALSE
[11]
  motif_found: FALSE

## SRHAQEPPAKRRKGSKGPEG-
[12]
  motif_found: FALSE

## SRWEVIANYMNIHSSS
Bait CALM1 EF-hand (P0DP23, 2-149), HD2 library selection with 1mM_CaCl, confidence level (4 = High, 2 or 3 = Medium, 1 = Low)
  HD2-1mM_CaCl confidence: 3
Bait CALM1 EF-hand (P0DP23, 2-149), HD2 library selection, confidence level (4 = High, 2 or 3 = Medium, 1 = Low)
  HD2 confidence: 3

## SSDGTCVAARTRPVLSCKKRR
Library HD2, bait WDR5_WD_1234567_P61964_21_334, validated benchmark motif instance, in_library_check TRUE, TRUE/FALSE = instance recovered in ProP-PD selection
  motif_found: FALSE

## SSGSSEDSFVEIRMAEGEA
[10]
  motif_found: FALSE
[11]
  motif_found: FALSE

## SSHRKTKKPLPPTPEEDQILK
Library HD2, bait YES1_SH3__P07947_90_152, validated benchmark motif instance, in_library_check TRUE, TRUE/FALSE = instance recovered in ProP-PD selection
  motif_found: FALSE

## SSKPNQKKLIVLSDSEVIQLSDG
[9]
  motif_found: FALSE

## SSLEEPHSPETGEKVVAGEV
[13]
  motif_found: FALSE

## SSNPPTSVPTAPALSSVIAP
HD2 library, bait TSG101_UEV__Q99816_1_145, known motif instance of the benchmarking set found (TRUE) or not found (FALSE) among selected peptides
  motif_found: FALSE

## SSSSASGSYGHLSASAISPALS
Bait SUFU_SUFU__Q9UMX1_1_484, HD2 library, whether the validated benchmark motif instance was recovered in the ProP-PD selection (TRUE/FALSE)
  motif_found: FALSE

## STAQEQDDVLIVDSDEEDSSNNADV
[9]
  motif_found: FALSE

## STASKGRYIPPHLRNREATKG
Library HD2, bait EIF4E_eIF4E__P06730_1_217, whether the validated benchmark motif instance was recovered in the ProP-PD selection (TRUE/FALSE)
  motif_found: FALSE

## SVEFLDLAHSSESQETISS
Library HD2, bait USP7_MATH-TRAF__Q93009_53_206, validated benchmark motif instance, in_library_check TRUE, TRUE/FALSE = instance recovered in ProP-PD selection
  motif_found: FALSE

## SVVSPPELPPRNIPLT
Bait CRK_SH3_1_P46108_124_198, library HD
  HD confidence: 2
Bait CRK_SH3_1_P46108_124_198, library HD2 P8
  HD2 confidence: 4
Bait CRK_SH3_1_P46108_124_198, library HD2 P8 cytoplasm
  HD2_cytoplasm confidence: 4
Bait CRK_SH3_1_P46108_124_198, library HD2 P8 nucleocytoplasmic
  HD2_nc confidence: 2
Bait CRK_SH3_1_P46108_124_198, library HD2 P8 nucleocytoplasmic, mean normalised NGS counts
  HD2_nc count proportions: 6.106e-06
Bait CRK_SH3_1_P46108_124_198, library HD2 P8 nucleocytoplasmic, mean raw NGS counts, all selections
  HD2_nc mean counts: 1.0
Bait CRK_SH3_1_P46108_124_198, library HD, mean normalised NGS counts
  HD count proportions: 0.0001782
Bait CRK_SH3_1_P46108_124_198, library HD, mean raw NGS counts, all selections
  HD mean counts: 3.0

## SWVAFAHTGAWGTGLP
Bait AP2B1_adaptin__P63010_700_937, HD2 P8 selection, non primary paralogue peptide match, confidence level -4 to 4: 4 = High, 3 or 2 = Medium, 1 = Low, 0 = Filtered/Noise
  HD2 confidence: 4

## TDEVPVPPPVPPRRRPESAP,DEVPVPPPVPPRRRPESAPA [SOS1]
[14]
  motif_found: FALSE

## TDYRPPDDAVFDIITDEELCQ
[11]
  motif_found: FALSE

## TFNSYRKEWEELFVNNNYL [TBC1D5 58-62]
HD2 library, bait MAP1LC3A_ATG8__Q9H492_2_121, benchmark motif instance, in_library_check FALSE, in_library_coverage 0
  motif_found: FALSE
HD2 library, bait MAP1LC3B_ATG8__Q9GZQ8_2_119, benchmark motif instance, in_library_check FALSE, in_library_coverage 0
  motif_found: FALSE

## TGQPTKVGRFQVTTTA
[4]
  HD2_cytoplasm confidence: 4

## THHNQASDIIVISSEDSEGSTDVDE
[9]
  motif_found: FALSE

## TKSTVTGERQSGDGQESTEPVE
[15]
  motif_found: FALSE

## TKVGRFQVTTTANKVG
[16]
  best_confidence: 4
[17]
  best_specificity: 1
[18]
  motif_found: TRUE

## TLALPSLVPQNYTENK
Bait ANKRA2_Ank__Q9H9E1_142_313, library HD
  HD confidence: 2
Bait ANKRA2_Ank__Q9H9E1_142_313, library HD, mean normalised NGS counts
  HD count proportions: 0.0001017
Bait ANKRA2_Ank__Q9H9E1_142_313, library HD, mean raw NGS counts, all selections
  HD mean counts: 1.75

## TLDDSDEDVILVESQDPPLPS
[9]
  motif_found: FALSE

## TLVSPKLPSLEAPTSA
[8]
  HD2 confidence: 3

## TNAYKLPLAVGPPSLNYIPPVLQLS,LAVGPPSLNYIPP [TEX14]
Bait CEP55_EABR__Q53EZ4_160_217, library HD2, benchmarking set of validated motif instances, TRUE = motif instance recovered in the ProP-PD selection
  motif_found: TRUE

## TNGAMNVEIGNPTYKMYEGGEP
HD2 library, bait TLN1_PTB__Q9Y490_309_401, known motif instance of the benchmarking set found (TRUE) or not found (FALSE) among selected peptides
  motif_found: FALSE

## TNLYWPGTAEPLLVSS
Library HD, bait AP2B1_adaptin__P63010_700_937, ProP-PD peptides with disease-related mutations
  confidence: 2

## TNPFLNETLQDVQPSP
[1]
  best_specificity: 1
[2]
  best_confidence: 4
[3]
  motif_found: TRUE

## TNPFQPAPPATLTLNQ
[1]
  best_specificity: 1
[2]
  best_confidence: 4
[3]
  motif_found: TRUE

## TPDSRRVARPPPIGAEVPDVTA
[15]
  motif_found: FALSE

## TPGAALSWQAAIDAARQAKLMG [CACNA1C]
[7]
  motif_found: FALSE

## TPPGAKASNPFLPGGGPAT
[3]
  motif_found: FALSE

## TPPPPYTVAPGRPLTA
Library HD2, bait YAP1_WW_1_P46937_169_207, confidence level of best matching selected peptide (4 High, 2-3 Medium, 1 Low)
  best_confidence: 4
Library HD2, bait YAP1_WW_1_P46937_169_207, specificity score of best matching selected peptide
  best_specificity: 1
[6]
  motif_found: TRUE

## TPSYSISSTLNPQAPEFILGCTASKIT
Bait PABP-B_PABP__P11940_544_623, HD2 library, whether the validated benchmark motif instance was recovered in the ProP-PD selection (TRUE/FALSE)
  motif_found: FALSE

## TPYTAYPPPAQAYGIP
Bait CEP55_EABR__Q53EZ4_160_217, HD2 P8 nucleocytoplasmic sublibrary, confidence level (4 = High, 2-3 = Medium, 1 = Low)
  HD2_nc confidence: 4
Bait CEP55_EABR__Q53EZ4_160_217, HD2 P8 nucleocytoplasmic sublibrary, mean NGS counts over replicate selections
  HD2_nc mean counts: 482.0
Bait CEP55_EABR__Q53EZ4_160_217, HD2 P8 nucleocytoplasmic sublibrary, mean proportion of NGS counts
  HD2_nc count proportions: 0.008703

## TQRSKPQPAVPPRPSADLIL [NCF1]
[14]
  motif_found: FALSE

## TQVPGTPPPKYNTLRLER
[5]
  motif_found: FALSE
[6]
  motif_found: FALSE

## TRKKTFKEVANAVKISASLMGT
Library HD2, bait CALM1_EF-hand__P0DP23_2_149, motif instance NOT in library (in_library_check FALSE, in_library_coverage 0)
  motif_found: FALSE

## TSNNRLLNKRRKKQAGSSSA
[12]
  motif_found: FALSE

## TTTANKVGRFSVSKTE
[16]
  best_confidence: 2
[17]
  best_specificity: 1
[18]
  motif_found: TRUE

## TVNNCAQDRESPDGSYTEEQSQ
[15]
  motif_found: FALSE

## VDLTHNDSVVIVDERRRPRRN
[9]
  motif_found: FALSE

## VDPSTGELQSLQMPES
Library HD2, bait Keap1_KELCH__Q14145_321_609, best matching peptide
  best_specificity: 1
Library HD2, bait Keap1_KELCH__Q14145_321_609, confidence level of best matching peptide (4 High, 2-3 Medium, 1 Low)
  best_confidence: 3
[13]
  motif_found: TRUE

## VEEEWVIVSDEEIEEA
Bait MAP1LC3A_ATG8__Q9H492_2_121, HD2 P8 endomembrane sublibrary, confidence level (4 = High, 2-3 = Medium, 1 = Low)
  HD2_endomembrane confidence: 4

— paper PMC8769072, “Proteome‐scale mapping of binding sites in the unstructured regions of the human proteome” (Molecular Systems Biology, 2022)
